Measured values taken from article PMC5658448, “From receptor binding kinetics to signal transduction; a missing link in predicting in vivo drug-action” (Scientific Reports, 2017).
Like-named read-outs stand apart in the source and are kept apart here.

What was measured:
[1] = target: human neurokinin 1 receptor (Homo sapiens, UniProt P25103); assay: Real-time cAMP accumulation assay (GloSensor) in CHOhNK1 cells; assay type: cell-based; settings: for type of antagonism (insurmountability): antagonist pre-incubation before SP or NKA, cAMP and morphology assays; for decrease of onset of NKA-induced cAMP production: antagonist pretreatment
Method: Real-time cAMP production was measured using the life cell cAMP GloSensor^TM assay[11],[12]. The technology is based on a cAMP-biosensor, which undergoes a conformational change upon cAMP binding, followed by the turnover of Luciferin.
CHOhNK1 cells were transiently transfected with the pGloSensor™-22F cAMP (6 ng/µL) plasmid using FuGene HD (3 µL:1 µg DNA plasmid) as a transfection reagent. Accordingly, cells were harvested and reconstituted to 0.5 × 10^6 cells/ml (10,000 cells/well) in DMEM/F-12/ HEPES supplemented with 1% FCS, 2 mM glutamine and 1 mg/ml G418. The diluted plasmid solution was combined with the transfection reagent and incubated for 20 min at room temperature. Subsequently, the transfection mixture and cell solution were mixed for additional 5 min before plating in 384-well plates. The transfected cells were incubated for 24 h at 37 °C + 5% CO2 followed by treatment with Glo-substrate (3% v/v) for 2 h at room temperature. […] Real-time changes in the level of cAMP were detected using an Envision HTS microplate reader 2103 (PerkinElmer).
(§1) The onset of receptor activation was analyzed by calculating the slope with linear regression of the first 8 minutes of the cellular response.2 onset=Δcellularresponse/Δtime

NK1 receptor [2] = target: T1, NK1 receptor (Homo sapiens, UniProt P25103); assay: Impedance-based morphology assay (xCELLigence) in U-251 MG cells; assay type: cell-based; design: host or cells: U-251 MG cells; settings: for Onset of receptor activation, morphology, NKA / Onset of receptor activation, morphology, SP / decrease of onset of NKA-induced morphological changes / decrease of onset of SP-induced impedance changes: first 8 min; for decrease of onset of NKA-induced morphological changes / decrease of onset of SP-induced impedance changes: antagonist pretreatment; for increase of EC50 value of NKA: xCELLigence, highest antagonist concentration; for IC50: antagonist pre-incubation
Method: Label-free morphology assays were performed using the xCELLigence RTCA system as described previously[27],[42].
as §1

NK1 receptor [3] = target: T1, NK1 receptor; design: host or cells: U-251 MG cells; settings: room temperature; cited from earlier work
NK1 receptor [4] = target: T1, NK1 receptor; assay: Radioligand binding affinity at the NK1 receptor ([3H][Sar9,Met(O2)11]SP, CHOhNK1 membranes)
NK1 receptor [5] = target: T1, NK1 receptor; assay: Dual-point competition association assay (kinetic rate index); assay type: binding; settings: 4 °C; Bt1 (30 min)/Bt2 (120 min); vs radioligand [3H][Sar9,Met(O2)11]SP
Method: Dual-point competition association assays were performed as prescribed previously, following the radioligand binding protocol of Nederpelt et al.[27].
Data from dual-point competition association assays were analyzed by dividing the specific binding at t1 (Bt1) with the specific binding at t2 (Bt2).1 KRI=Bt1/Bt2 Data from morphology and cAMP experiments were analyzed as described previously. […] Results were normalized to the maximal response induced by agonist without antagonist.

NK1 receptor [6] = target: T1, NK1 receptor; design: host or cells: U-251 MG cells; settings: cited from earlier work
NK1 receptor [7] = target: T1, NK1 receptor; design: host or cells: U-251 MG cells; settings: agonist alone; normalized to NKA only; cited from earlier work
[8] = NKA after 0.07 nM antagonist, first 8 min
[9] = NKA after 0.21 nM antagonist, first 8 min
[10] = NKA after 0.7 nM antagonist, first 8 min
[11] = SP after 0.07 nM antagonist, first 8 min
[12] = SP after 0.21 nM antagonist, first 8 min
[13] = SP after 0.7 nM antagonist, first 8 min
[14] = NKA after 0.07 nM antagonist, normalized to NKA only
[15] = NKA after 0.21 nM antagonist, normalized to NKA only
[16] = NKA after 0.7 nM antagonist, normalized to NKA only
[17] = SP after 0.07 nM antagonist, normalized to SP only
[18] = SP after 0.21 nM antagonist, normalized to SP only
[19] = SP after 0.7 nM antagonist, normalized to SP only

T1 sequence (P25103 whole entry): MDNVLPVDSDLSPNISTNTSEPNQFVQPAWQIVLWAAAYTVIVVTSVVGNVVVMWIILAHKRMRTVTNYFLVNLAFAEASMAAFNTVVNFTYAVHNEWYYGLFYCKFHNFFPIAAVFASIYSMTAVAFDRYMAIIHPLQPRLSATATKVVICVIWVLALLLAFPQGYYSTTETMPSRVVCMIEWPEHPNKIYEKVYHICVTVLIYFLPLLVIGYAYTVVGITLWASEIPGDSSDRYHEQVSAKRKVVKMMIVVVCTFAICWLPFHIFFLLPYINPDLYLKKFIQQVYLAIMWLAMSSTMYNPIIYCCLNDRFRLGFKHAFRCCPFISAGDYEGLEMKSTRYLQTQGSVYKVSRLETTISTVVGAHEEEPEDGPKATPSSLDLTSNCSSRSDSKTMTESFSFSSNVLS
Chain of human neurokinin 1 receptor (P25103 whole entry): as above

With C[C@@H](O[C@H]1OCCN(Cc2n[nH]c(=O)[nH]2)[C@H]1c1ccc(F)cc1)c1cc(C(F)(F)F)cc(C(F)(F)F)c1 [Aprepitant, aprepitant] the “Onset of receptor activation, cAMP, NKA” value [1, 8] was 75 ± 13^NS RLU min^−1, the “Onset of receptor activation, cAMP, NKA” value [1, 9] was 43 ± 7.7 RLU min^−1 and the “Onset of receptor activation, cAMP, NKA” value [1, 10] was 9.7 ± 1.6 RLU min^−1. For the same compound, the “Onset of receptor activation, cAMP, SP” value [1, 11] was 94 ± 13 RLU min^−1, the Emax ([1]; SP after 0.07 nM antagonist, normalized to SP only, read-out: Emax cAMP SP) was 62 ± 5.7% and the “Onset of receptor activation, cAMP, SP” value [1, 12] was 63 ± 17 RLU min^−1. For the same compound, the Emax ([1]; SP after 0.21 nM antagonist, normalized to SP only, read-out: Emax cAMP SP) was 55 ± 15%, the “Onset of receptor activation, cAMP, SP” value [1, 13] was 36 ± 7 RLU min^−1 and the Emax ([1]; SP after 0.7 nM antagonist, normalized to SP only, read-out: Emax cAMP SP) was 19 ± 5.5%. For the same compound, the “type of antagonism (insurmountability)” value [1] was “fully insurmountable”, the “decrease of onset of SP-induced cAMP production” value ([1]; antagonist pre-incubation, first 8 min) was “up to 6 fold” and the “decrease of onset of NKA-induced cAMP production” value ([1]; first 8 min) was 15 fold. The “decrease of potency of NKA” value ([1]; cAMP assay) was 10 fold, the Emax ([1]; cAMP assay, highest antagonist concentration, read-out: decrease of Emax of SP in comparison to control) was > 80% and the Emax ([1]; read-out: Emax cAMP NKA, NKA after 0.07 nM antagonist, normalized to NKA only) was 71 ± 13%. The Emax ([1]; read-out: Emax cAMP NKA, NKA after 0.21 nM antagonist, normalized to NKA only) was 43 ± 19%, the Emax ([1]; read-out: Emax cAMP NKA, NKA after 0.7 nM antagonist, normalized to NKA only) was 7.8 ± 4.2% and the “Onset of receptor activation, morphology, NKA” value (“Onset … morphology, NKA” below) (NK1 receptor [2]; NKA after 0.07 nM antagonist) was 0.05 ± 0.011^NS NCI min^−1. The “Onset … morphology, NKA” value (NK1 receptor [2]; NKA after 0.21 nM antagonist) was 0.03 ± 0.007^NS NCI min^−1, the “Onset … morphology, NKA” value (NK1 receptor [2]; NKA after 0.7 nM antagonist) was 0.006 ± 0.003 NCI min^−1 and the “Onset of receptor activation, morphology, SP” value (from here on “Onset … morphology, SP”) (NK1 receptor [2]; SP after 0.07 nM antagonist) was 0.05 ± 0.002^NS NCI min^−1. For the same compound, the “Onset … morphology, SP” value (NK1 receptor [2]; SP after 0.21 nM antagonist) was 0.04 ± 0.006^NS NCI min^−1, the “Onset … morphology, SP” value (NK1 receptor [2]; SP after 0.7 nM antagonist) was 0.009 ± 0.003 NCI min^−1 and the Emax (NK1 receptor [2]; U-251, SP after 0.07 nM antagonist, normalized to SP only, read-out: Emax morphology SP) was 96 ± 7.6%. For the same compound, the Emax (NK1 receptor [2]; U-251, SP after 0.21 nM antagonist, normalized to SP only, read-out: Emax morphology SP) was 79 ± 5%, the Emax (NK1 receptor [2]; U-251, SP after 0.7 nM antagonist, normalized to SP only, read-out: Emax morphology SP) was 53 ± 8.5% and the Emax (NK1 receptor [2]; U-251, read-out: Emax morphology NKA, NKA after 0.07 nM antagonist, normalized to NKA only) was 97 ± 2.3%. The Emax (NK1 receptor [2]; U-251, read-out: Emax morphology NKA, NKA after 0.21 nM antagonist, normalized to NKA only) was 79 ± 10%, the Emax (NK1 receptor [2]; U-251, read-out: Emax morphology NKA, NKA after 0.7 nM antagonist, normalized to NKA only) was 30 ± 6.2% and the “decrease of onset of NKA-induced morphological changes” value (NK1 receptor [2]) was 8 fold. For the same compound, the “decrease of onset of SP-induced impedance changes” value (NK1 receptor [2]) was 5 fold, the “increase of EC50 value of NKA” value (NK1 receptor [2]) was 7 fold and the receptor dissociation rate (NK1 receptor [3]) was 0.0054 min⁻¹.
In the case of C[C@@H](O[C@H]1OCCN(Cc2n[nH]c(=O)[nH]2)[C@H]1c1ccccc1)c1cc(C(F)(F)F)cc(C(F)(F)F)c1 [DFA, desfluoro aprepitant], the “Onset of receptor activation, cAMP, NKA” value [1, 8] is reported as 98 ± 29^NS RLU min^−1, the “Emax cAMP NKA” value [1, 14] is reported as 84 ± 18^NS % and the “Onset of receptor activation, cAMP, NKA” value [1, 9] is reported as 98 ± 33^NS RLU min^−1. The “Emax cAMP NKA” value [1, 15] was 67 ± 10 %, the “Onset of receptor activation, cAMP, NKA” value [1, 10] was 71 ± 22^NS RLU min^−1 and the “Emax cAMP NKA” value [1, 16] was 61 ± 15 %. The “Onset of receptor activation, cAMP, SP” value [1, 11] was 125 ± 31^NS RLU min^−1, the “Emax cAMP SP” value [1, 17] was 78 ± 4.5 % and the “Onset of receptor activation, cAMP, SP” value [1, 12] was 120 ± 27^NS RLU min^−1. The “Emax cAMP SP” value [1, 18] was 75 ± 7.7 %, the “Onset of receptor activation, cAMP, SP” value [1, 13] was 158 ± 26^NS RLU min^−1 and the “Emax cAMP SP” value [1, 19] was 61 ± 10 %. The EC50 ([1]; SP after 30 min pre-incubation with 0.07 nM antagonist, read-out: EC50 cAMP SP) was 1.9 ± 0.5 nM, the EC50 ([1]; SP after 30 min pre-incubation with 0.21 nM antagonist, read-out: EC50 cAMP SP) was 2.7 ± 0.8 nM and the EC50 ([1]; SP after 30 min pre-incubation with 0.7 nM antagonist, read-out: EC50 cAMP SP) was 2.3 ± 0.7 nM. For the same compound, the “type of antagonism (insurmountability)” value [1] was “partially insurmountable”, the IC50 ([1]; antagonist pre-incubation, then EC80 concentration of NKA, read-out: IC50 (cAMP)) was 0.26 ± 0.08 nM and the IC50 ([1]; antagonist pre-incubation, then EC80 concentration of SP, read-out: IC50 (cAMP assay)) was 0.15 ± 0.02 nM. The “decrease of onset of NKA-induced cAMP production” value ([1]; first 8 min) was “did not significantly decrease”, the “decrease of potency of NKA” value ([1]; cAMP assay) was “did not affect” and the “decrease of Emax of SP in comparison to control” value ([1]; cAMP assay, highest antagonist concentration) was 39%. The EC50 ([1]; read-out: EC50 cAMP NKA, NKA after 30 min pre-incubation with 0.07 nM antagonist) was 399 ± 19 nM, the EC50 ([1]; read-out: EC50 cAMP NKA, NKA after 30 min pre-incubation with 0.21 nM antagonist) was 304 ± 89 nM and the EC50 ([1]; read-out: EC50 cAMP NKA, NKA after 30 min pre-incubation with 0.7 nM antagonist) was 1080 ± 356 nM. For the same compound, the pKi (NK1 receptor [4]) was 9.3 ± 0.04, the “Onset … morphology, NKA” value (NK1 receptor [2]; NKA after 0.07 nM antagonist) was 0.06 ± 0.005^NS NCI min^−1 and the “Emax morphology NKA” value (NK1 receptor [2]; [14]) was 109 ± 7.6^NS %. The “Onset … morphology, NKA” value (NK1 receptor [2]; NKA after 0.21 nM antagonist) was 0.05 ± 0.007^NS NCI min^−1, the “Emax morphology NKA” value (NK1 receptor [2]; [15]) was 108 ± 6.7^NS % and the “Onset … morphology, NKA” value (NK1 receptor [2]; NKA after 0.7 nM antagonist) was 0.04 ± 0.014^NS NCI min^−1. For the same compound, the “Emax morphology NKA” value (NK1 receptor [2]; [16]) was 81 ± 8.9 %, the “Onset … morphology, SP” value (NK1 receptor [2]; SP after 0.07 nM antagonist) was 0.06 ± 0.006^NS NCI min^−1 and the “Emax morphology SP” value (NK1 receptor [2]; [17]) was 97 ± 5.6^NS %. The “Onset … morphology, SP” value (NK1 receptor [2]; SP after 0.21 nM antagonist) was 0.05 ± 0.006^NS NCI min^−1, the “Emax morphology SP” value (NK1 receptor [2]; [18]) was 104 ± 4.2^NS % and the “Onset … morphology, SP” value (NK1 receptor [2]; SP after 0.7 nM antagonist) was 0.03 ± 0.005 NCI min^−1. The “Emax morphology SP” value (NK1 receptor [2]; [19]) was 82 ± 6.9 %, the EC50 (NK1 receptor [2]; SP after 30 min pre-incubation with 0.07 nM antagonist, read-out: EC50 morphology SP) was 0.053 ± 0.02 nM and the EC50 (NK1 receptor [2]; SP after 30 min pre-incubation with 0.21 nM antagonist, read-out: EC50 morphology SP) was 0.06 ± 0.015 nM. The EC50 (NK1 receptor [2]; SP after 30 min pre-incubation with 0.7 nM antagonist, read-out: EC50 morphology SP) was 3 ± 1.3 nM, the IC50 (NK1 receptor [2]; then EC80 concentration of NKA, read-out: IC50 (morphology)) was 0.12 ± 0.006 nM and the IC50 (NK1 receptor [2]; then EC80 concentration of SP, read-out: IC50 (morphology assay)) was 0.22 ± 0.1 nM. For the same compound, the “decrease of onset of NKA-induced morphological changes” value (NK1 receptor [2]) was “did not significantly decrease”, the “decrease of onset of SP-induced impedance changes” value (NK1 receptor [2]) was “less significant” and the EC50 (NK1 receptor [2]; read-out: EC50 morphology NKA, NKA after 30 min pre-incubation with 0.07 nM antagonist) was 3 ± 0.52 nM. The EC50 (NK1 receptor [2]; read-out: EC50 morphology NKA, NKA after 30 min pre-incubation with 0.21 nM antagonist) was 3.3 ± 0.45 nM, the EC50 (NK1 receptor [2]; read-out: EC50 morphology NKA, NKA after 30 min pre-incubation with 0.7 nM antagonist) was 8.5 ± 0.46 nM and the “increase of EC50 value of NKA” value (NK1 receptor [2]) was 2 fold. For the same compound, the “KRI (kinetic rate index)” value (NK1 receptor [5]) was 1.0 ± 0.13.
In the case of O=c1[nH]nc(CN2CCO[C@H](OCc3cc(C(F)(F)F)cc(C(F)(F)F)c3)[C@@H]2c2ccccc2)[nH]1 [L-742,694], the “effect on Emax of SP after pre-incubation” value (NK1 receptor [6]) is given as “clear decrease”.
For CSCC[C@H](NC(=O)[C@H](CC(C)C)NC(=O)CNC(=O)[C@@H](NC(=O)[C@H](Cc1ccccc1)NC(=O)[C@H](CO)NC(=O)[C@H](CC(=O)O)NC(=O)[C@@H](NC(=O)[C@H](CCCCN)NC(=O)[C@@H](N)Cc1c[nH]cn1)[C@@H](C)O)C(C)C)C(N)=O [NKA, neurokinin A], the “Emax morphology NKA” value (NK1 receptor [7]) is listed as 100 ± 0.44 %.
For Cc1ccccc1-c1cc(N2CCN(C)CC2)ncc1N(C)C(=O)C(C)(C)c1cc(C(F)(F)F)cc(C(F)(F)F)c1 [netupitant], the type of antagonism (NK1 receptor [6]) is given as “insurmountable”.
